Experimental data as given in US8188117B2, “Piperidinyl-substituted isoquinolone derivatives” (Sanofi-Aventis, priority 2005, dated 2012).

target: T1, ROCKII or ROKα (Homo sapiens, UniProt O75116); assay: Determination of Rho kinase inhibition (γ33P ATP, Streptavidin Flash Plate); assay type: biochemical; conditions: ATP 40 μM, enzyme 0.1 ng/μl, 20 min at room temperature, tested as salt or free base obtained in the examples
T1 construct: purchased Upstate 14-451
Description: Determination of Rho Kinase Inhibition
To measure Rho-kinase inhibition, IC50 values were determined according to the following protocol:
Buffer: 25 mM Tris pH7.5; 0.02% BSA; 5% Glycerol; 0.008% Triton X100; 2% DMSO, 1 mM DTT; 1 mM MgCl2; 0.5 μCi/well γ^33P ATP
Enzyme: ROCKII or ROKα) (Upstate, Catalog #14-451 Lot #24880U) 0.1 ng/μl Final concentration of ATP in reaction mixture 40 μM
Biotinylated substrate, diluted to 0.25 μM with buffer described above (without ATP)
• 1. 10 μl Tris buffer (±Inhibitor) • 2. Add 30 μL of enzyme solution • 3. Start the reaction with 30 μL of mix substrate/ATP/ATP33 • 4. Incubate for 20 min at room temperature • 5. Stop reaction with 30 μL of 50 mM EDTA • 6. Transfer 50 μL of stopped solution to Streptavidin Flash Plate plus, Perkin Elmer, SMP 103A • 7. Incubate for 30 min at RT • 8. Wash 4 times with 300 μl of PBS/0.1% Tween 20 • 9. Radioactivity in the well was determined

T1 sequence (O75116 whole entry): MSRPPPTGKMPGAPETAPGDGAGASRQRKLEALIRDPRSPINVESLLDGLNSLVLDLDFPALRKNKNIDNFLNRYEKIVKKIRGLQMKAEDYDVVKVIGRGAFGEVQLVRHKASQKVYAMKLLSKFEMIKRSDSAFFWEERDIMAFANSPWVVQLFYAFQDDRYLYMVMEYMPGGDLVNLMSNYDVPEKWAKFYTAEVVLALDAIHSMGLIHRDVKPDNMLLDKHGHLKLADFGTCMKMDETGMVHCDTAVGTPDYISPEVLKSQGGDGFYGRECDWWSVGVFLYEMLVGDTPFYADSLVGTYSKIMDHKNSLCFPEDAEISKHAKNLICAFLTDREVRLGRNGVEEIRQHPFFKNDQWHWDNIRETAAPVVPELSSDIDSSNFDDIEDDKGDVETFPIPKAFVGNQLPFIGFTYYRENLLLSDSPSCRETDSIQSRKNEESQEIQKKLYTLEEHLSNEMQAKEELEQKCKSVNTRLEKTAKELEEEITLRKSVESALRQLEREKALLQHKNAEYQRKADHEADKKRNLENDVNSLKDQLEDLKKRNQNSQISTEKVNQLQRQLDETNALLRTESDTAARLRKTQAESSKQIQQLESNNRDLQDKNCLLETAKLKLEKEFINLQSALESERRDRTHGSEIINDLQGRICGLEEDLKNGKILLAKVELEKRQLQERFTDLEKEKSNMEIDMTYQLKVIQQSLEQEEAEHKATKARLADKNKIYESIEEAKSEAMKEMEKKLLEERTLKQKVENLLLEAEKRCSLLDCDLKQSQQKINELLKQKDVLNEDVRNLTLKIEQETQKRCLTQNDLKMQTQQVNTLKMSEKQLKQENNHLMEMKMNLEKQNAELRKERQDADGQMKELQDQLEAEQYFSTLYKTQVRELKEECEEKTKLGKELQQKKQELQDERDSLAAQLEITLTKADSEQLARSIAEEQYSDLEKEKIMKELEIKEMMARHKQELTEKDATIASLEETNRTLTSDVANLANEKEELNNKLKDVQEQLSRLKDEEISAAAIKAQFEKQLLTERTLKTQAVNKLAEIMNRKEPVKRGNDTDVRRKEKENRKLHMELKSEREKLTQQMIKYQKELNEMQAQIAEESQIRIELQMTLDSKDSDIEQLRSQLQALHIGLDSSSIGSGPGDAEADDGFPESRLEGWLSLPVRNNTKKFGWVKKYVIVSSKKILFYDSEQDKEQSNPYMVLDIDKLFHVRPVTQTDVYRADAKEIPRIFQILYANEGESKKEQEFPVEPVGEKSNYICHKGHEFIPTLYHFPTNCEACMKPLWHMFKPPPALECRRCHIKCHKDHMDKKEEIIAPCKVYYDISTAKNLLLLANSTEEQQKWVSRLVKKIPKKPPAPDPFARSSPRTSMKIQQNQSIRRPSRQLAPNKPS

| Compound | pIC50 |
| --- | --- |
| Cc1c[nH]c(=O)c2ccc(OC3CCNCC3)cc12 [Example 21] | +++++ (6.0 ≦ pIC50) |
| O=c1[nH]ccc2cc(OC3CCNCC3)c(F)cc12 [Example 23] | +++++ (6.0 ≦ pIC50) |
| CCc1c[nH]c(=O)c2cc(F)c(OC3CCNCC3)cc12 [Example 32] | ++++ (5.0 ≦ pIC50 < 6.0) |
| O=c1[nH]cc(Br)c2cc(OC3CCNCC3)ccc12 [Example 52, 4-Bromo-6-(piperidin-4-yloxy)-2H-isoquinolin-1-one] | +++++ (6.0 ≦ pIC50) |
| Oc1nccc2cc(OC3CCNCC3)c(Cl)cc12 [Example 54, 7-Chloro-6-(piperidin-4-yloxy)-2H-isoquinolin-1-one] | +++++ (6.0 ≦ pIC50) |
| O=c1[nH]ccc2cc(OC3CCN(CC4CC4)CC3)ccc12 [Example 58] | +++++ (6.0 ≦ pIC50) |
| Cc1cc2c(=O)[nH]ccc2cc1OC1CCN(Cc2ccsc2)CC1 [Example 266] | +++++ (6.0 ≦ pIC50) |
| O=c1[nH]ccc2c(Cl)c(OC3CCNCC3)ccc12 [Example 309, 5-Chloro-6-(piperidin-4-yloxy)-2H-isoquinolin-1-one] | +++++ (6.0 ≦ pIC50) |

Other lines, results leading:

| pIC50 | Compound |
| --- | --- |
| +++++ (6.0 ≦ pIC50) | O=c1[nH]ccc2cc(OC3CCNCC3)ccc12 [Example 12, 6-(Piperidin-4-yloxy)-2H-isoquinolin-1-one] |
| +++++ (6.0 ≦ pIC50) | O=c1[nH]ccc2cc(OC3CCNCC3)c(Br)cc12 [Example 17, 7-Bromo-6-(piperidin-4-yloxy)-2H-isoquinolin-1-one] |
| ++++ (5.0 ≦ pIC50 < 6.0) | COc1cc2c(=O)[nH]ccc2cc1OC1CCNCC1 [Example 25] |
| +++++ (6.0 ≦ pIC50) | Cc1cc2c(=O)[nH]cc(C)c2cc1OC1CCNCC1 [Example 28] |
| +++++ (6.0 ≦ pIC50) | CCc1c[nH]c(=O)c2ccc(OC3CCNCC3)cc12 [Example 31] |
| +++++ (6.0 ≦ pIC50) | CN1CCC(Oc2ccc3c(=O)[nH]ccc3c2)CC1 [Example 40] |
| ++++ (5.0 ≦ pIC50 < 6.0) | O=c1[nH]ccc2cc(OC[C@H]3CCCNC3)ccc12 [Example 49] |
| +++++ (6.0 ≦ pIC50) | CC(C)N1CCC(Oc2cc3ccnc(O)c3cc2Cl)CC1 [Example 55, 7-Chloro-6-(1-isopropyl-piperidin-4-yloxy)-2H-isoquinolin-1-one] |
| +++++ (6.0 ≦ pIC50) | CCCN1CCC(Oc2cc3cc[nH]c(=O)c3cc2F)CC1 [Example 101] |
| +++++ (6.0 ≦ pIC50) | Cc1cc2c(=O)[nH]ccc2cc1OC1CCN(CC2CCOC2)CC1 (centres unmarked) [Example 265] |
| +++++ (6.0 ≦ pIC50) | Cc1cc2c(=O)[nH]ccc2cc1OC1CCN(Cc2ccc(S(C)(=O)=O)cc2)CC1 [Example 275] |
| +++++ (6.0 ≦ pIC50) | Cc1cc2c(=O)[nH]ccc2cc1OC1CCN(Cc2ccccn2)CC1 [Example 276] |
